# Assay results as given in publication PMC12503912 (Chemmedchem, 2025).
# *1 amine or outer side, *2 acyl side, *3 side chain or, on linkers, in order; H or OH if unused. Where a SMILES comes first, the peptide text is derived from it. [ ]: non-standard residue; d: D form. The star is where a group is joined. N(CH2CH2CO)Gly = O=C(CN(CCC(=O)[*:3])[*:1])[*:2]; NMe2Val = CC(C)[C@@H](C(=O)*)N(C)C; NHhexadecyl = CCCCCCCCCCCCCCCCN*; X1 = O=C(CN(Cc1cncs1)[*:1])[*:2]; NFurfurylGly = O=C(O)CNCc1ccco1; NMe(benzyl) = CN(Cc1ccccc1)*; NMeV = CN[C@H](C(=O)O)C(C)C; X2 = O=C(NCCCCN*)OCc1ccccc1; Nphe = O=C(O)CNCc1ccccc1; NHcHex = C1CCC(N*)CC1; NHBn = c1ccc(CN*)cc1; NHHex = CCCCCCN*; NHBu = CCCCN*
# Experiments:
# HCT-116 cells = conditions: 48 h
# Experimental: (§1) The anticancer activity of the dolastatin 15 analogs 5a‐i was tested in comparison with cemadotin and the N‐methylated cemadotin derivative 5j against three human cancer cell lines, namely prostate adenocarcinoma PC‐3 cells, colorectal carcinoma HCT‐116 cells, and triple‐negative breast cancer MDA‐MB‐468 cells. In vitro cell viability and cytotoxicity assays were conducted and IC50 curves, and values were determined using the resazurin assay and fluorometric read‐out after 48 h cells’ treatment with the compounds in concentrations covering the micro‐ and nanomolar range (Figure S83, Supporting Information, SI).
# (§2) Material and methods for cell-based assays
# (§3) Human cell culture materials and cultivation methodology
# (§4) The in vitro cell viability and cytotoxicity assays were performed with the human prostate cancer cell line PC-3, the human colorectal cancer cell line HCT-116 and the human triple-negative breast cancer cell line MDA-MB-468; the fluorescence microscopic inspections just with PC-3 cells. The cell lines were obtained from DSMZ (Braunschweig, Germany) and ATCC (Manassas, VA, USA) and cultivated in their specific growth medium. PC-3 cells were cultivated in RPMI 1640 supplemented with 1% (v/v) glutamine, and 10% (v/v) he at-inactivated fetal calf serum (FCS); HCT-116 was cultured in McCoy’s 5a Modified Medium supplemented with 10% (v/v) heat-inactivated FCS; and for MDA-MB-468, DMEM high glucose (4.5 g/L) supplemented with 10% (v/v) heat-inactivated FCS was used.
# (§5) All the basal culture media and supplements, like glutamine and FCS, PBS and 0.05% trypsin-EDTA for cell detachment were purchased from Capricorn Scientific GmbH (Ebsdorfergrund, Germany). Cell culture plastics were used from TPP (Trasadingen, Switzerland), Greiner Bio-One (Frickenhausen, Germany) and Sarstedt (Nürnbrecht, Germany). Digitonin was purchased from Riedel De Haën (Seelze, Germany) and DMSO from Duchefa Biochemie (Haarlem, The Netherlands). Resazurin was used from Sigma-Aldrich Chemie GmbH (Taufkirchen, Germany). The tubulin-specific dye reagent SiR-tubulin kit (SC002) and verapamil were purchased from Spirochrome AG (Stein am Rhein, Switzerland), the nuclei stain H33342 was from Thermo Fisher Scientific (Waltham, MA, USA).
# (§6) Cultivation was routinely done in T-75 flasks in a humidified atmosphere with 5% CO2 at 37 °C until subconfluency (~ 70-80%) was reached, and the cells were ready for subsequent sub-culturing or assay usage. For that, the adherent cells were rinsed with PBS and detached with trypsin/EDTA (0.05% in PBS) prior to cell passaging and seeding.
# (§7) Cell viability assay - methodology
# (§8) The impacts of the newly synthesized dolastatin derivatives analogs on the viability and proliferation of the three human cancer cell lines were investigated by performing fluorometric resazurin-based cell viability assays, following a protocol well established in our lab.[3,4] In 3 R. Kufka, R. Rennert, G. N. Kaluđerović, L. Weber, W. Richter, L. A. Wessjohann, Beilstein J. Org. Chem.
# (§9) 4 Y. T. H. Lam, J. Hoppe, Q. N. Dang; A. Porzel, A. Soboleva, W. Brandt, R. Rennert, H. Hussain, M. D. Davari, […]
# (§10) brief, the cells were seeded in low densities in 96-well plates (PC-3: 3.000 cells/well; HCT-116: 5.000 cells/well; MDA-MB-468: 10.000 cells/well) yielding a seeding confluency of ~ 10 – 20%, and were allowed to adhere overnight. Subsequently, the cells were treated for 48 h with dilutions series (25.6 pM – 10 µM in 5-fold dilutions) of the test compounds (1 mM DMSO stocks). For control measures, cells were treated in parallel with 1% DMSO (negative control, representing the final DMSO content of the highest concentrated sample point, for data normalization set to 100% cell viability) and 100 µM digitonin (positive control, for data normalization set to 0% cell viability). After finalization of the 48 h incubation, the incubation media were discarded, and cells were rinsed once with PBS. Resazurin solution in basal medium
# PC-3 cells = conditions: 48 h
# Experimental: as §1, §2, §3, §4, §5, §6, §7, §8, §9, §10
# MDA-MB-468 cells = conditions: 48 h
# Experimental: as §1, §2, §3, §4, §5, §6, §7, §8, §9, §10
# [1] = system: PC-3, HCT-116 and MDA-MB-468 cells; conditions: all cancer cells tested; resazurin, 48 h (Figure S84)
# Experimental: as §10
# [2] = system: microtubule network in PC-3 cells
SMILES,IC50 (HCT-116 cells) [nM],IC50 (PC-3 cells) [nM],IC50 (MDA-MB-468 cells) [nM],cytotoxic profile [1],effect on microtubule structure [2],cell and nuclear morphology after treatment [2]
CC(C)[C@H](NC(=O)[C@H](C(C)C)N(C)C)C(=O)N(C)[C@H](C(=O)N1CCC[C@H]1C(=O)N1CCC[C@H]1C(=O)N(CC(=O)NCCCCNC(=O)OCc1ccccc1)Cc1ccccc1)C(C)C [Peptide 5e] (NMe2Val-V[NMeV]PP[Nphe]-X2),4300,1600,1200,–,–,–
CC(C)[C@H](NC(=O)[C@H](C(C)C)N(C)C)C(=O)N(C)[C@H](C(=O)N1CCC[C@H]1C(=O)N(CC(=O)NC1CCCCC1)[C@@H](Cc1ccccc1)C(=O)NCc1ccccc1)C(C)C [Peptide 11d],> 10000,> 10000,> 10000,–,–,–
CC(C)C[C@@H](C(=O)NCc1ccccc1)N(CC(=O)NC(C)(C)C)C(=O)[C@@H]1CCCN1C(=O)[C@H](C(C)C)N(C)C(=O)[C@@H](NC(=O)[C@H](C(C)C)N(C)C)C(C)C [Peptide 11b],> 10000,> 10000,> 10000,–,–,–
CCCCNC(=O)CN(Cc1ccco1)C(=O)[C@@H]1CCCN1C(=O)[C@@H]1CCCN1C(=O)[C@H](C(C)C)N(C)C(=O)[C@@H](NC(=O)[C@H](C(C)C)N(C)C)C(C)C [Peptide 5i] (NMe2Val-V[NMeV]PP[NFurfurylGly]-NHBu),> 10000,3700,1200,–,–,–
CCCCNC(=O)CN(C(=O)[C@@H]1CCCN1C(=O)[C@H](C(C)C)N(C)C(=O)[C@@H](NC(=O)[C@H](C(C)C)N(C)C)C(C)C)[C@@H](C)C(=O)NCc1ccc(OC)cc1 [Peptide 11g],> 10000,> 10000,> 10000,–,–,–
CCCCNC(=O)CN(C(=O)[C@@H]1CCCN1C(=O)[C@H](C(C)C)N(C)C(=O)[C@@H](NC(=O)[C@H](C(C)C)N(C)C)C(C)C)[C@@H](CC(C)C)C(=O)NCc1ccccc1 [Peptide 11c],7900,> 10000,~5000,–,–,–
"CC(C)[C@H](NC(=O)[C@H](C(C)C)N(C)C)C(=O)N(C)[C@H](C(=O)N1CCC[C@H]1C(=O)N1CCC[C@H]1C(=O)N(C)Cc1ccccc1)C(C)C [Peptide 5j, N‐Methyl‐cemadotin] (NMe2Val-V[NMeV]PP-{NMe(benzyl)})",> 10000,> 10000,> 10000,–,–,–
CCCCCCCCCCCCCCCCNC(=O)CN(Cc1ccccc1)C(=O)[C@@H]1CCCN1C(=O)[C@@H]1CCCN1C(=O)[C@H](C(C)C)N(C)C(=O)[C@@H](NC(=O)[C@H](C(C)C)N(C)C)C(C)C [Peptide 5f] (NMe2Val-V[NMeV]PP[Nphe]-NHhexadecyl),2700,2100,2100,–,–,–
CC(C)[C@H](NC(=O)[C@H](C(C)C)N(C)C)C(=O)N(C)[C@H](C(=O)N1CCC[C@H]1C(=O)N1CCC[C@H]1C(=O)N(CC(=O)NC1CCCCC1)Cc1ccccc1)C(C)C [Peptide 5d] (NMe2Val-V[NMeV]PP[Nphe]-NHcHex),1900,1200,1400,–,–,–
COc1ccc(CNC(=O)[C@H](CC(C)C)N(CC(=O)NCc2ccccc2)C(=O)[C@@H]2CCCN2C(=O)[C@H](C(C)C)N(C)C(=O)[C@@H](NC(=O)[C@H](C(C)C)N(C)C)C(C)C)cc1 [Peptide 11a],> 10000,> 10000,> 10000,–,–,–
CCCCCCCCCCCCCCCCNC(=O)CCN(CC(=O)NC1CCCCC1)C(=O)[C@@H]1CCCN1C(=O)[C@H](C(C)C)N(C)C(=O)[C@@H](NC(=O)[C@H](C(C)C)N(C)C)C(C)C [Peptide 11i] (NMe2Val-V[NMeV]P[N(CH2CH2CO)Gly](NHhexadecyl)-NHcHex),6400,2300,3400,inducing the death of all cancer cells tested,–,–
CCCCCCNC(=O)CN(C(=O)[C@@H]1CCCN1C(=O)[C@H](C(C)C)N(C)C(=O)[C@@H](NC(=O)[C@H](C(C)C)N(C)C)C(C)C)[C@@H](C)C(=O)NCc1ccccc1 [Peptide 11h],–,> 10000,–,–,–,–
CCCCCCNC(=O)CN(Cc1ccccc1)C(=O)[C@@H]1CCCN1C(=O)[C@@H]1CCCN1C(=O)[C@H](C(C)C)N(C)C(=O)[C@@H](NC(=O)[C@H](C(C)C)N(C)C)C(C)C [Peptide 5b] (NMe2Val-V[NMeV]PP[Nphe]-NHHex),7200,~5000,2100,–,–,–
"CC(C)[C@H](NC(=O)[C@H](C(C)C)N(C)C)C(=O)N(C)[C@H](C(=O)N1CCC[C@H]1C(=O)N1CCC[C@H]1C(=O)NCc1ccccc1)C(C)C [cemadotin, reference compound] (NMe2Val-V[NMeV]PP-NHBn)",1,1.3,2.5,–,–,–
CCCCNC(=O)CN(Cc1ccccc1)C(=O)[C@@H]1CCCN1C(=O)[C@@H]1CCCN1C(=O)[C@H](C(C)C)N(C)C(=O)[C@@H](NC(=O)[C@H](C(C)C)N(C)C)C(C)C [Peptide 5a] (NMe2Val-V[NMeV]PP[Nphe]-NHBu),2200,1500,820,–,acts in the initial phase of microtubule network disruption,–
CC(C)[C@H](NC(=O)[C@H](C(C)C)N(C)C)C(=O)N(C)[C@H](C(=O)N1CCC[C@H]1C(=O)N(CC(=O)NC1CCCCC1)[C@@H](Cc1ccccc1)C(=O)NCc1ccco1)C(C)C [Peptide 11e],> 10000,9300,> 10000,–,–,–
CCCCNC(=O)CN(Cc1cncs1)C(=O)[C@@H]1CCCN1C(=O)[C@@H]1CCCN1C(=O)[C@H](C(C)C)N(C)C(=O)[C@@H](NC(=O)[C@H](C(C)C)N(C)C)C(C)C [Peptide 5h] (NMe2Val-V[NMeV]PP[X1]-NHBu),50,30,24,–,microtubule networks appear to be stabilized rather than destabilized,enlarged and showed strongly fragmented nuclei
CC(C)[C@H](NC(=O)[C@H](C(C)C)N(C)C)C(=O)N(C)[C@H](C(=O)N1CCC[C@H]1C(=O)N1CCC[C@H]1C(=O)N(CC(=O)NCc1ccccc1)Cc1ccccc1)C(C)C [Peptide 5c] (NMe2Val-V[NMeV]PP[Nphe]-NHBn),2300,1900,1100,–,–,–
CC(C)[C@H](NC(=O)[C@H](C(C)C)N(C)C)C(=O)N(C)[C@H](C(=O)N1CCC[C@H]1C(=O)N(CC(=O)NCc1ccccc1)[C@@H](Cc1ccccc1)C(=O)NCc1ccco1)C(C)C [Peptide 11f],> 10000,> 10000,> 10000,–,–,–
